According to patent US10881653B2, “Tricyclic compounds and their use in the treatment of cancer” (The United States of America, as represented by the …, priority 2015, dated 2021):
Structures can show the parent of a compound that is named as a salt. Where two headings read alike, the source gives them in different places.

How the values were obtained:
[1] = target: T1, gluthathione reductase (GR) (Homo sapiens, UniProt P00390); assay: Inhibition of recombinant GR (GSSG assay); assay type: biochemical
T1 sequence (P00390 44-522): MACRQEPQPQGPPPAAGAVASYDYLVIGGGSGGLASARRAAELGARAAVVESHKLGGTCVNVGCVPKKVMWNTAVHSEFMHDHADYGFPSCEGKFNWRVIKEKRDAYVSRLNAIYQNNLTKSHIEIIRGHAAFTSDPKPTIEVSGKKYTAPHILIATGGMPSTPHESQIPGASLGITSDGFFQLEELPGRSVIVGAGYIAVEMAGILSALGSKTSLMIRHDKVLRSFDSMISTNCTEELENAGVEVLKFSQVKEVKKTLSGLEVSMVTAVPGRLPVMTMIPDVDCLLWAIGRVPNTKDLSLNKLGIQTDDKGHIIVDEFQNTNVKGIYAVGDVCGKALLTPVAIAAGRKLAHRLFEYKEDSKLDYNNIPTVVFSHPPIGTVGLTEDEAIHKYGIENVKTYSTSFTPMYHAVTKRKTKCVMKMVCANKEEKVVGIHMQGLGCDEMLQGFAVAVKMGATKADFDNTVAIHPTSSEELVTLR
Protocol: (§1) Small molecule inhibition of recombinant thioredoxin reductase 1 (TrxR1) and gluthathione reductase (GR) was examined in 96-well plate format. 15 nM TrxR1 was incubated in the presence of 250 μM NADPH, 0.1 mg/ml BSA, and various concentrations of the compound of Example 1 (1% DMSO final) in 50 mM Tris (pH 7.5) and 2 mM EDTA buffer for 15 minutes. Following the incubation period, 2.5 mM DTNB was added to each well and the change in O.D. at 412 nm was followed. Percent activity was determined using DMSO vehicle and no TrxR1 (blank) controls. 2 nM GR was incubated in the presence of 250 μM NADPH, 0.1 mg/ml BSA, and various concentrations of compounds (1% DMSO final) in 50 mM Tris (pH 7.5) and 2 mM EDTA buffer for 15 minutes. Following the incubation period, 1 mM GSSG was added to each well and the change in O.D. at 340 nm was followed. Percent activity was determined using DMSO vehicle and no GR (blank) controls.

[2] = target: T2, recombinant thioredoxin reductase 1 (TrxR1) (Homo sapiens, UniProt Q16881); assay: Inhibition of recombinant TrxR1 (DTNB assay); assay type: biochemical
T2 sequence (Q16881 1-649): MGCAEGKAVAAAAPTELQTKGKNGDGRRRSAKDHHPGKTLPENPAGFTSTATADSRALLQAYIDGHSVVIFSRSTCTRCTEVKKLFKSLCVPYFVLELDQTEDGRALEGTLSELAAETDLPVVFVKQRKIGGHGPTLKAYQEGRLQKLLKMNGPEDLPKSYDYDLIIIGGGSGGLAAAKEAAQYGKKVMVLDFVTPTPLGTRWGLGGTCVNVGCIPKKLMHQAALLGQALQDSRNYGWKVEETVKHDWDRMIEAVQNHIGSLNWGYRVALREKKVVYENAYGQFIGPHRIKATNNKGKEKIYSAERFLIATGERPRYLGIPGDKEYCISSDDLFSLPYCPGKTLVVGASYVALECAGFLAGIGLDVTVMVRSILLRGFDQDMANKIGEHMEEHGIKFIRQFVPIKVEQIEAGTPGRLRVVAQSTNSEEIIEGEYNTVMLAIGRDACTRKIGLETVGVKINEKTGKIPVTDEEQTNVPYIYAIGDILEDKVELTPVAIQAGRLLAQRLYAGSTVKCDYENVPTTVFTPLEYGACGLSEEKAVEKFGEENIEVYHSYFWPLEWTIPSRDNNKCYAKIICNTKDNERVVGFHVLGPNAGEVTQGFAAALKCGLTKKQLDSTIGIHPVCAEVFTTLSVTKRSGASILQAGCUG
Protocol: as §1

[3] = Biological Example 1, 2 nM GR, 250 μM NADPH, 15 minutes incubation
[4] = Biological Example 4, assays of Biological Example 1
[5] = Biological Example 1, 15 nM TrxR1, 250 μM NADPH, 15 minutes incubation, read-out: TrxR inhibition
[6] = Biological Example 4, assays of Biological Example 1, read-out: TrxR Inhibition

| Structure (SMILES) | IC50 [1, 3] | IC50 [1, 4] | IC50 [2, 5] | IC50 [2, 6] |
| --- | --- | --- | --- | --- |
| O=C1C=C[C@H]2C3C(=O)N(C4CCCCC4)C(=O)C3[C@@H]1N2Cc1ccccc1 (mixture of isomers) [Example 10, endo-11-Benzyl-4-cyclohexyl-4,11-diazatricyclo[5.3.1.0^2,6]undec-9-ene-3,5,8-trione Trifluoroacetate] | > 100 µM | > 100 µM | 2.7 µM | 0.79 µM |
| CC(C)(C)N1C(=O)C2C(C1=O)[C@@H]1C=CC(=O)[C@H]2N1Cc1ccccc1 (mixture of isomers) [Example 16, endo 11-Benzyl-4-(tert-butyl)-4,11-diazatricyclo[5.3.1.0^2,6]undec-9-ene-3,5,8-trione Trifluoroacetate] |  | > 100 µM |  | 5.56 µM |
| O=C1C=C[C@H]2C3C(=O)N(c4ccccc4)C(=O)C3[C@@H]1N2Cc1cc(F)ccc1F (mixture of isomers) [Example 26, endo 11-(2,5-Difluorobenzyl)-4-phenyl-4,11-diazatricyclo[5.3.1.0^2,6]undec-9-ene-3,5,8-trione Trifluoroacetate] |  | 30.1 µM |  | 2.5 µM |
| O=C1C=C[C@H]2C3C(=O)N(c4ccccc4)C(=O)C3[C@@H]1N2Cc1cccc(F)c1F (mixture of isomers) [Example 30, endo-11-(2,3-Difluorobenzyl)-4-phenyl-4,11-diazatricyclo[5.3.1.0^2,6]undec-9-ene-3,5,8-trione Trifluoroacetate] |  | 25.2 µM |  | 1.87 µM |
| CCN1C(=O)C2C(C1=O)[C@@H]1C=CC(=O)[C@H]2N1Cc1cccc(C)c1 (mixture of isomers) [Example 48, endo-4-Ethyl-11-(3-methylbenzyl)-4,11-diazatricyclo[5.3.1.0^2,6]undec-9-ene-3,5,8-trione Trifluoroacetate] |  | > 100 µM |  | 3.63 µM |
| CN1C(=O)C2C(C1=O)[C@@H]1C=CC(=O)[C@H]2N1Cc1ccccc1 (mixture of isomers) [Example 50, endo-11-Benzyl-4-methyl-4,11-diazatricyclo[5.3.1.0^2,6]undec-9-ene-3,5,8-trione Trifluoroacetate] |  | > 100 µM |  | 3.08 µM |
| O=C1C=C[C@H]2[C@@H]3C(=O)N(c4ccccc4)C(=O)[C@@H]3[C@@H]1N2Cc1ccc(-c2ccccc2)cc1 (relative stereo) [Example 2, exo-11-([1,1′-Biphenyl]-4-ylmethyl)-4-phenyl-4,11-diazatricyclo[5.3.1.0^2,6]-undec-9-ene-3,5,8-trione Trifluoroacetate] |  | 65.2 µM |  | 1.46 µM |
| CN1[C@@H]2C(=O)C=C[C@H]1[C@@H]1C(=O)N(c3ccccc3)C(=O)[C@@H]12 (relative stereo) [Example 3, exo-11-Methyl-4-phenyl-4,11-diazatricyclo[5.3.1.0^2,6]undec-9-ene-3,5,8-trione Trifluoroacetate] | 44 µM | 23 µM | 3.09 µM | 1.12 µM |
| Cc1ccc(CN2[C@@H]3C(=O)C=C[C@H]2[C@@H]2C(=O)N(c4ccccc4)C(=O)[C@@H]23)cc1 (relative stereo) [Example 4, exo-11-Methylbenzyl-4-phenyl-4,11-diazatricyclo[5.3.1.0^2,6]undec-9-ene-3,5,8-trione Trifluoroacetate] |  | 55.6 µM |  | 1.18 µM |
| O=C1C=C[C@H]2[C@@H]3C(=O)N(c4ccccc4)C(=O)[C@@H]3[C@@H]1N2CCc1ccccc1 (relative stereo) [Example 7, exo-4-Phenyl-11-(2-phenylethyl)-4,11-diazatricyclo[5.3.1.0^2,6]undec-9-ene-3,5,8-trione Trifluoroacetate] | > 100 µM | > 100 µM | 1.75 µM | 1.97 µM |
| O=C1C=C[C@H]2[C@@H]3C(=O)N(C4CCCCC4)C(=O)[C@@H]3[C@@H]1N2Cc1ccccc1 (relative stereo) [Example 9, exo-11-Benzyl-4-cyclohexyl-4,11-diazatricyclo[5.3.1.0^2,6]undec-9-ene-3,5,8-trione Trifluoroacetate] | > 100 µM | > 100 µM | 1.85 µM | 1.85 µM |
| O=C1C=C[C@H]2[C@@H]3C(=O)N(Cc4ccccc4)C(=O)[C@@H]3[C@@H]1N2Cc1ccccc1 (relative stereo) [Example 11, exo-4,11-Dibenzyl-4,11-diazatricyclo[5.3.1.0^2,6]undec-9-ene-3,5,8-trione Trifluoroacetate] |  | > 100 µM |  | 0.9 µM |
| CC1=CC(=O)[C@@H]2[C@H]3C(=O)N(C4CCCCC4)C(=O)[C@H]3[C@H]1N2Cc1ccccc1 (relative stereo) [Example 14, exo-11-Benzyl-4-cyclohexyl-10-methyl-4,11-diazatricyclo[5.3.1.0^2,6]undec-9-ene-3,5,8-trione Trifluoroacetate] |  | > 100 µM |  | 33.3 µM |
| CC(C)(C)N1C(=O)[C@@H]2[C@H](C1=O)[C@H]1C(=O)C=C[C@@H]2N1Cc1ccccc1 (relative stereo) [Example 17, exo-11-Benzyl-4-(tert-butyl)-4,11-diazatricyclo[5.3.1.0^2,6]undec-9-ene-3,5,8-trione Trifluoroacetate] |  | > 100 µM |  | 1.64 µM |
| O=C1C=C[C@H]2[C@@H]3C(=O)N(c4ccccc4)C(=O)[C@@H]3[C@@H]1N2Cc1ccc(F)cc1Cl (relative stereo) [Example 18, exo-11-(2-Chloro-4-fluorobenzyl)-4-phenyl-4,11-diazatricyclo[5.3.1.0^2,6]-undec-9-ene-3,5,8-trione Trifluoroacetate] | 70.4 µM | 22 µM | 2.45 µM | 0.94 µM |
| Cc1ccccc1CN1[C@@H]2C(=O)C=C[C@H]1[C@@H]1C(=O)N(c3ccccc3)C(=O)[C@@H]12 (relative stereo) [Example 19, exo-11-(2-Methylbenzyl)-4-phenyl-4,11-diazatricyclo[5.3.1.0^2,6]undec-9-ene-3,5,8-trione Trifluoroacetate] |  | > 100 µM |  | 1.5 µM |
| Cc1cccc(CN2[C@@H]3C(=O)C=C[C@H]2[C@@H]2C(=O)N(c4ccccc4)C(=O)[C@@H]23)c1 (relative stereo) [Example 21, exo-11-(3-Methylbenzyl)-4-phenyl-4,11-diazatricyclo[5.3.1.0^2,6]undec-9-ene-3,5,8-trione Trifluoroacetate] | > 100 µM | > 100 µM | 7.39 µM | 1.15 µM |
| COc1cccc(CN2[C@@H]3C(=O)C=C[C@H]2[C@@H]2C(=O)N(c4ccccc4)C(=O)[C@@H]23)c1 (relative stereo) [Example 22, exo-11-(3-Methoxybenzyl)-4-phenyl-4,11-diazatricyclo[5.3.1.0^2,6]undec-9-ene-3,5,8-trione Trifluoroacetate] | > 100 µM | 75.2 µM | 1.97 µM | 1.24 µM |
| CS(=O)(=O)c1ccc(CN2[C@@H]3C(=O)C=C[C@H]2[C@@H]2C(=O)N(c4ccccc4)C(=O)[C@@H]23)cc1 (relative stereo) [Example 23, exo-11-(4-(Methylsulfonyl)benzyl)-4-phenyl-4,11-diazatricyclo[5.3.1.0^2,6]-undec-9-ene-3,5,8-trione Trifluoroacetate] |  | > 100 µM |  | 3.83 µM |
| O=C1C=CC2C3C(=O)N(c4ccccc4)C(=O)C3C1N2Cc1cccc(C(F)(F)F)c1F (stereo not drawn) [Example 44, exo-11-(2-Fluoro-3-(trifluoromethyl)benzyl)-4-phenyl-4,11-diazatricyclo-[5.3.1.0^2,6]undec-9-ene-3,5,8-trione Trifluoroacetate] |  |  |  | 2.33 µM |
